Measurements reported in US12059472B2 (Bayer Aktiengesellschaft, priority 2016, dated 2024).

Assays:
[1] = tested on: KPL4: human breast cancer cell line; assay: Cytotoxic effect on KPL4 cells (MTT assay); format: cell-based; conditions: Table 2, active metabolites
Method: The analysis of the cytotoxic effects of the ADCs was carried out with various cell lines: • NCI-H292: human mucoepidermoid lung carcinoma cells, ATCC-CRL-1848, standard medium: RPMI 1640 (Biochrom; #FG1215, stab. glutamine)+10% FCS (Sigma; #F2442), TWEAKR-positive; EGFR-positive. • BxPC3: human pancreas carcinoma cells, ATCC-CRL-1687, standard medium: RPMI 1640 (Biochrom; #FG1215, stab. glutamine)+10% FCS (Sigma; #F2442), TWEAKR-positive. • LoVo human colorectal cancer cells, ATCC No. CCL-229, cultivation for MTT assay: standard medium: Kaighn's+L-glutamine (Invitrogen 21127)+10% heat inactivated FCS (from Gibco, No. 10500-064). Cultivation for CTG assay: RPMI 1640 (Biochrom; #FG1215, stab. glutamine)+10% FCS (Sigma #F2442). […]
The cells were cultivated by the standard method, with the growth media specified under C-1a. […] After 96 h, the cell proliferation was detected using the MTT assay (ATCC, Manassas, Virginia, USA, catalogue No. 30-1010K). […] The dye formed was detected at 570 nm (Infinite M1000 pro, Tecan). The measured data were used to calculate the IC50 of the growth inhibition using the DRC (dose response curve). […]

[2] = tested on: NCI-H292: human mucoepidermoid lung carcinoma cells; assay: Cytotoxic effect on NCI-H292 cells (MTT/CTG assay); format: cell-based; conditions: Table 2, active metabolites, MTT
Method: (§1) The cells were cultivated by the standard method as stated by the American Tissue Culture Collection (ATCC) or the Leibniz-Institut DSMZ-Deutsche Sammlung von Mikroorganismen und Zellkulturen GmbH (DSMZ) for the cell lines in question.
The cells were then incubated in an incubator at 37° C. and 5% carbon dioxide.
(§2) The cells were then incubated in an incubator at 37° C. and 5% carbon dioxide. After 48 h, the medium was replaced. […] To this end, the MTT reagent was incubated with the cells for 4 h, followed by lysis of the cells overnight by addition of the detergent. The dye formed was detected at 570 nm (Infinite M1000 pro, Tecan).

[3] = Caco-2 flux assay for cell permeability; format: in vitro ADME; conditions: human; Caco-2, basal to apical, 2 hours
Method: The cell permeability of a substance can be investigated by means of in vitro testing in a flux assay using Caco-2 cells [M. D. Troutman and D. R. Thakker, Pharm. […] For this purpose, the cells were cultured for 15-16 days on 24-well filter plates. For the determination of permeation, the respective test substance was applied in a HEPES buffer to the cells either apically (A) or basally (B) and incubated for 2 hours. After 0 hours and after 2 hours, samples were taken from the cis and trans compartments. The samples were separated by HPLC (Agilent 1200, Böblingen, Germany) using reverse phase columns. The HPLC system was coupled via a Turbo Ion Spray Interface to a Triple Quadropol mass spectrometer API 4000 (AB SCIEX Deutschland GmbH, Darmstadt, Germany).
Of critical importance for toxophors which are released intracellularly is the permeability from B to A [Papp (B-A)] and the ratio of Papp (B-A) to Papp (A-B) (efflux ratio): the lower this permeability, the slower the active and passive transport processes of the substance through the monolayer of Caco-2 cells.

[4] = tested on: SK-HEP-1: human liver cell cancer line; assay: Cytotoxic effect on SK-HEP-1 cells (MTT assay); format: cell-based; conditions: SK-HEP1, Table 2, active metabolites
Method: as §1
as §2, with “Tecan). The measured data were used to calculate the IC50 of the growth inhibition using the DRC (dose response curve). The proliferation of cells which were not treated with test substance but were otherwise identically treated was defined as the 100% figure.” for “Tecan).”

CC(C)(C)[C@H](c1cc(-c2cc(F)ccc2F)cn1Cc1ccccc1)N(CC[C@H](N)C(=O)NCCC(=O)N[C@H](CCC(=O)O)C(=O)O)C(=O)CO [Example M3, N-{(2S)-2-Amino-4-[{(1R)-1-[1-benzyl-4-(2,5-difluorophenyl)-1H-pyrrol-2-yl]-2,2-dimethylpropyl}(glycoloyl)amino]butanoyl}-beta-alanyl-D-glutamic acid]
IC50 [1]: 173 nM | IC50 [2]: 174 nM | Papp B→A at 2 h [3]: 0.27 ×10⁻⁶ cm/s | IC50 [4]: 14.6 nM
